According to patent US4362743A, “Antibacterial monic acid esters” (Beecham Group Limited, priority 1980, dated 1982):
In brackets after ≈: the same amount, converted by molar mass. Read-outs that look alike come from different tables or passages of the source.

Legend:
Type in all cases: cell-based
M. suipneumoniae TAM 6N = experiment: Anti-mycoplasmal activity in vitro MIC; conditions: Mesomycoplasma hyopneumoniae, TAM6N, 144 h
M. suipneumoniae MS16 = experiment: Anti-mycoplasmal activity in vitro MIC; conditions: Mesomycoplasma hyopneumoniae
Ps. aeruginosa 10662 = experiment: Human bacteria MIC; conditions: Pseudomonas aeruginosa; Ps. aeruginosa 10662; nutrient agar, 5% chocolated horse blood, 18 hours 37° C.; read-out: M.I.C.
Experimental: (§1) The values were determined by serial dilutions in nutrient agar with 5% chocolated horse blood after incubations for 18 hours at 37° C.

Bacillus subtilis 6633 = experiment: Human bacteria MIC
Experimental: as §1

Strep. Group C 64/848 = experiment: Human bacteria MIC
Experimental: as §1

[1] = test system: Neisseria catarralis 1502; experiment: Human bacteria MIC
Experimental: as §1

E. coli ESS = experiment: Human bacteria MIC; conditions: Escherichia coli
Experimental: as §1

Strep. pneumoniae CN33 = experiment: Human bacteria MIC; conditions: Streptococcus pneumoniae; Strep. pneumoniae CN33; nutrient agar, 5% chocolated horse blood, 18 hours 37° C.; read-out: M.I.C.
Experimental: as §1

Strep Group B 2788 = experiment: Human bacteria MIC
Experimental: as §1

K. aerogenes A = experiment: Human bacteria MIC; conditions: Klebsiella aerogenes; K. aerogenes A; nutrient agar, 5% chocolated horse blood, 18 hours 37° C.; read-out: M.I.C.
Experimental: as §1

P. mirabilis 889 = experiment: Human bacteria MIC; conditions: Proteus mirabilis; P. mirabilis 889; nutrient agar, 5% chocolated horse blood, 18 hours 37° C.; read-out: M.I.C.
Experimental: as §1

Staph. aureus Oxford [2] = experiment: Human bacteria MIC; conditions: Staphylococcus aureus; Staph. aureus Oxford; nutrient agar, 5% chocolated horse blood, 18 hours 37° C.; read-out: M.I.C.
Experimental: as §1

Staph. aureus W2827 = experiment: Human bacteria MIC; conditions: Staphylococcus aureus; Staph. aureus W2827; nutrient agar, 5% chocolated horse blood, 18 hours 37° C.; read-out: M.I.C.
Experimental: as §1

[3] = test system: Staph. aureus 152 (pen. sens); experiment: Veterinary bacteria MIC; conditions: Staphylococcus aureus, Diagnostic Sensitivity Test Agar, 18 hours 37° C.
Experimental: (§2) The values were determined using a two fold serial dilutions in Diagnostic Sensitivity Test Agar with an inoculum of 10^4 organisms and incubation for 18 hours at 37° C.

Bord. brochiasetpica B09 = experiment: Veterinary bacteria MIC; conditions: Diagnostic Sensitivity Test Agar, 18 hours 37° C.
Experimental: as §2

E. coli El = experiment: Veterinary bacteria MIC; conditions: Escherichia coli; E. coli El; Diagnostic Sensitivity Test Agar, 18 hours 37° C.; read-out: M.I.C.
Experimental: as §2

Strep. uberis SPU1 = experiment: Veterinary bacteria MIC; conditions: Streptococcus uberis, Diagnostic Sensitivity Test Agar, 18 hours 37° C.
Experimental: as §2

E. coli NCTC 10418 = experiment: Veterinary bacteria MIC; conditions: Escherichia coli, NCTC10418; E. coli NCTC 10418; Diagnostic Sensitivity Test Agar, 18 hours 37° C.; read-out: M.I.C.
Experimental: as §2

Past. haemolytica PA5 = experiment: Veterinary bacteria MIC; conditions: Mannheimia haemolytica; Past. haemolytica PA5; Diagnostic Sensitivity Test Agar, 18 hours 37° C.; read-out: M.I.C.
Experimental: as §2

[4] = test system: Corynebacterium pyogenes CY1; experiment: Veterinary bacteria MIC; conditions: Trueperella pyogenes; Corynebacterium pyogenes CY1; Diagnostic Sensitivity Test Agar, 18 hours 37° C.; read-out: M.I.C.
Experimental: as §2

[5] = test system: Erysipelothrix rhusiopathiae NCTC 8163; experiment: Veterinary bacteria MIC; conditions: NCTC8163; Erysipelothrix rhusiopathiae NCTC 8163; Diagnostic Sensitivity Test Agar, 18 hours 37° C.; read-out: M.I.C.
Experimental: as §2

Past. multocida PA2 = experiment: Veterinary bacteria MIC; conditions: Pasteurella multocida
Experimental: as §2

Strep. dysgalactiae SPD1 = experiment: Veterinary bacteria MIC; conditions: Streptococcus dysgalactiae, Diagnostic Sensitivity Test Agar, 18 hours 37° C.
Experimental: as §2

S. dublin S7 = experiment: Veterinary bacteria MIC; conditions: Salmonella enterica; S. dublin S7; Diagnostic Sensitivity Test Agar, 18 hours 37° C.; read-out: M.I.C.
Experimental: as §2

Bord. bronchiseptica B08 = experiment: Veterinary bacteria MIC; conditions: Bordetella bronchiseptica; Bord. bronchiseptica B08; Diagnostic Sensitivity Test Agar, 18 hours 37° C.; read-out: M.I.C.
Experimental: as §2

S. typhimurium S18 = experiment: Veterinary bacteria MIC; conditions: Salmonella enterica; S. typhimurium S18; Diagnostic Sensitivity Test Agar, 18 hours 37° C.; read-out: M.I.C.
Experimental: as §2

[6] = test system: Strep. suis (Group D) SPS11; experiment: Veterinary bacteria MIC; conditions: Streptococcus suis; Strep. suis (Group D) SPS11; Diagnostic Sensitivity Test Agar, 18 hours 37° C.; read-out: M.I.C.
Experimental: as §2

Past. multocida PA1 = experiment: Veterinary bacteria MIC; conditions: Pasteurella multocida, Diagnostic Sensitivity Test Agar, 18 hours 37° C.
Experimental: as §2

Strep. agalactiae SPA1 = experiment: Veterinary bacteria MIC; conditions: Streptococcus agalactiae, Diagnostic Sensitivity Test Agar, 18 hours 37° C.
Experimental: as §2

[7] = test system: Staph. aureus B4 (pen. resistant); experiment: Veterinary bacteria MIC; conditions: Staphylococcus aureus, Diagnostic Sensitivity Test Agar, 18 hours 37° C.
Experimental: as §2

Staph. aureus Oxford [8] = experiment: Veterinary bacteria MIC; conditions: Staphylococcus aureus, Diagnostic Sensitivity Test Agar, 18 hours 37° C.
Experimental: as §2

Row | Compound | MIC (Ps. aeruginosa 10662) [µg/mL] | MIC (Strep. pneumoniae CN33) [µg/mL] | MIC (K. aerogenes A) [µg/mL] | MIC (P. mirabilis 889) [µg/mL] | MIC (Staph. aureus Oxford [2]) [µg/mL] | MIC (Staph. aureus W2827) [µg/mL] | MIC [3] [µg/mL] | MIC (Bord. brochiasetpica B09) [µg/mL] | MIC (E. coli El) [µg/mL] | MIC (Strep. uberis SPU1) [µg/mL] | MIC (E. coli NCTC 10418) [µg/mL] | MIC (Past. haemolytica PA5) [µg/mL] | MIC [4] [µg/mL] | MIC [5] [µg/mL] | MIC (Strep. dysgalactiae SPD1) [µg/mL] | MIC (S. dublin S7) [µg/mL] | MIC (Bord. bronchiseptica B08) [µg/mL] | MIC (S. typhimurium S18) [µg/mL] | MIC [6] [µg/mL] | MIC (Past. multocida PA1) [µg/mL] | other results
1 | C/C(=C\C(=O)OCCCC(=NO)c1cccs1)C[C@@H]1OC[C@H](C[C@@H]2O[C@H]2[C@@H](C)[C@H](C)O)[C@@H](O)[C@H]1O [Example 4, 4-Hydroxyimino-4-(2-thienyl)butyl monate A] | > 100 | 1 (≈ 1.95 µM) | > 100 | > 100 | 1 (≈ 1.95 µM) | 2.5 (≈ 4.89 µM) | 0.312 (≈ 0.61 µM) | 5 (≈ 9.77 µM) | > 80 | 0.312 (≈ 0.61 µM) | > 80 | 20 (≈ 39.1 µM) | > 80 | 20 (≈ 39.1 µM) | 0.625 (≈ 1.22 µM) | > 80 | > 80 | > 80 | 10 (≈ 19.5 µM) | 2.5 (≈ 4.89 µM) | MIC (M. suipneumoniae TAM 6N): 0.5 µg/mL (≈ 0.977 µM); MIC (M. suipneumoniae MS16; 144 h, M. suipneumoniae MS16, Friis broth, 0.9% agarose, 6 days 37° C., read-out: M.I.C.): 0.25 µg/mL (≈ 0.489 µM); MIC (Bacillus subtilis 6633; Bacillus subtilis 6633, nutrient agar, 5% chocolated horse blood, 18 hours 37° C., read-out: M.I.C.): 1 µg/mL (≈ 1.95 µM); MIC (Strep. Group C 64/848; Strep. Group C 64/848, nutrient agar, 5% chocolated horse blood, 18 hours 37° C., read-out: M.I.C.): 1 µg/mL (≈ 1.95 µM); MIC ([1]; Neisseria catarralis 1502, nutrient agar, 5% chocolated horse blood, 18 hours 37° C., read-out: M.I.C.): 0.5 µg/mL (≈ 0.977 µM); MIC (E. coli ESS; E. coli ESS, nutrient agar, 5% chocolated horse blood, 18 hours 37° C., read-out: M.I.C.): 2.5 µg/mL (≈ 4.89 µM); MIC (Strep Group B 2788; Strep Group B 2788, nutrient agar, 5% chocolated horse blood, 18 hours 37° C., read-out: M.I.C.): 2.5 µg/mL (≈ 4.89 µM); MIC (Past. multocida PA2; PA2, 18 h): 0.156 µg/mL (≈ 0.305 µM); MIC (Strep. agalactiae SPA1): 0.625 µg/mL (≈ 1.22 µM); MIC [7]: 0.625 µg/mL (≈ 1.22 µM); MIC (Staph. aureus Oxford [8]): 0.312 µg/mL (≈ 0.61 µM)
2 | C/C(=C\C(=O)OC1CCC(=NO)CC1)C[C@@H]1OC[C@H](C[C@@H]2O[C@H]2[C@@H](C)[C@H](C)O)[C@@H](O)[C@H]1O (some centres unmarked) [Example 3, 4-Hydroxyiminocyclohexyl monate A] | > 100 | 0.5 (≈ 1.1 µM) | > 100 | > 100 | 2.5 (≈ 5.49 µM) | 5 (≈ 11 µM) | 1.25 (≈ 2.74 µM) | 20 (≈ 43.9 µM) | > 80 | 0.156 (≈ 0.342 µM) | > 80 | 5 (≈ 11 µM) | > 80 | 10 (≈ 22 µM) | 0.312 (≈ 0.685 µM) | > 80 | > 80 | > 80 | 2.5 (≈ 5.49 µM) | 1.25 (≈ 2.74 µM) | MIC (M. suipneumoniae TAM 6N; M. suipneumoniae TAM 6N, Friis broth, 0.9% agarose, 6 days 37° C., read-out: M.I.C.): 0.5 µg/mL (≈ 1.1 µM); MIC (M. suipneumoniae MS16; MS16, 144 h): 0.25 µg/mL (≈ 0.549 µM); MIC (Bacillus subtilis 6633; Bacillus subtilis, 6633, 18 h): 1 µg/mL (≈ 2.2 µM); MIC (Strep. Group C 64/848; 18 h): 1 µg/mL (≈ 2.2 µM); MIC ([1]; Neisseria, 1502, 18 h): 1 µg/mL (≈ 2.2 µM); MIC (E. coli ESS; 18 h): 1 µg/mL (≈ 2.2 µM); MIC (Strep Group B 2788; 18 h): 1 µg/mL (≈ 2.2 µM); MIC (Past. multocida PA2; Past. multocida PA2, Diagnostic Sensitivity Test Agar, 18 hours 37° C., read-out: M.I.C.): 0.312 µg/mL (≈ 0.685 µM); MIC (Strep. agalactiae SPA1): 0.625 µg/mL (≈ 1.37 µM); MIC [7]: 2.5 µg/mL (≈ 5.49 µM); MIC (Staph. aureus Oxford [8]): 1.25 µg/mL (≈ 2.74 µM)
